Source: patent publication US20100041089A1, “IMPROVED METHOD FOR DETECTING CHEMICAL […]” (priority 2006, published 2010)

System: yeast genes (expressed mRNA)
Assay: DNA chip measurement of expressed mRNA of yeast genes after culture with a toxic chemical substance
Format: cell-based, Saccharomyces cerevisiae S288C
Summary of the method: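 Two-hour exposure of growing S. cerevisiae S288C (YPD, 25° C) to a sublethal toxicant preceded RNA isolation. Fluorescent cDNA was hybridized to a whole-genome array; a treated-to-untreated signal ratio of two or more was taken as significant.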

## S=C([S-])NCCNC(=S)[S-].[Zn+2] [(11), Zinc N,N′-ethylenebis(dithiocarbamate)]
Yeast gene YAL053W, cultured two hours with substance
  The level of expressed mRNA in the presence of chemical substance/The level of expressed mRNA in the absence of chemical substance: 2.3
Yeast gene YAR028W, cultured two hours with substance
  The level of expressed mRNA in the presence of chemical substance/The level of expressed mRNA in the absence of chemical substance: 0.9
Yeast gene YBL048W, cultured two hours with substance
  The level of expressed mRNA in the presence of chemical substance/The level of expressed mRNA in the absence of chemical substance: 2.0
Yeast gene YBL107C, cultured two hours with substance
  The level of expressed mRNA in the presence of chemical substance/The level of expressed mRNA in the absence of chemical substance: 2.9
Yeast gene YBR008C (detoxification protein gene)
  The level of expressed mRNA in the presence of chemical substance/The level of expressed mRNA in the absence of chemical substance: 9.4
Yeast gene YBR072W (stress protein genes)
  The level of expressed mRNA in the presence of chemical substance/The level of expressed mRNA in the absence of chemical substance: 6.3
Yeast gene YBR096W, cultured two hours with the chemical substance
  The level of expressed mRNA in the presence of chemical substance/The level of expressed mRNA in the absence of chemical substance: 1.2
Yeast gene YBR269C, cultured two hours with substance
  The level of expressed mRNA in the presence of chemical substance/The level of expressed mRNA in the absence of chemical substance: 1.2
Yeast gene YCR102C, cultured two hours with substance
  The level of expressed mRNA in the presence of chemical substance/The level of expressed mRNA in the absence of chemical substance: 13.5
Yeast gene YDL023C, cultured two hours with the chemical substance
  The level of expressed mRNA in the presence of chemical substance/The level of expressed mRNA in the absence of chemical substance: 3.5
Yeast gene YDL072C, cultured two hours with substance
  The level of expressed mRNA in the presence of chemical substance/The level of expressed mRNA in the absence of chemical substance: 1.4
Yeast gene YDL169C, cultured two hours with substance
  The level of expressed mRNA in the presence of chemical substance/The level of expressed mRNA in the absence of chemical substance: 1.2
Yeast gene YDL204W, cultured two hours with substance
  The level of expressed mRNA in the presence of chemical substance/The level of expressed mRNA in the absence of chemical substance: 3.2
Yeast gene YDL218W, cultured two hours with substance
  The level of expressed mRNA in the presence of chemical substance/The level of expressed mRNA in the absence of chemical substance: 5.7
Yeast gene YDL222C, cultured two hours with substance
  The level of expressed mRNA in the presence of chemical substance/The level of expressed mRNA in the absence of chemical substance: 2.6
Yeast gene YDR031W, cultured two hours with substance
  The level of expressed mRNA in the presence of chemical substance/The level of expressed mRNA in the absence of chemical substance: 1.2
Yeast gene YDR070C, cultured two hours with substance
  The level of expressed mRNA in the presence of chemical substance/The level of expressed mRNA in the absence of chemical substance: 4.1
Yeast gene YDR077W (stress protein genes)
  The level of expressed mRNA in the presence of chemical substance/The level of expressed mRNA in the absence of chemical substance: 6.8
Yeast gene YDR330W, cultured two hours with substance
  The level of expressed mRNA in the presence of chemical substance/The level of expressed mRNA in the absence of chemical substance: 0.9
Yeast gene YDR391C, cultured two hours with substance
  The level of expressed mRNA in the presence of chemical substance/The level of expressed mRNA in the absence of chemical substance: 1.9
Yeast gene YDR411C, cultured two hours with substance
  The level of expressed mRNA in the presence of chemical substance/The level of expressed mRNA in the absence of chemical substance: 1.3
Yeast gene YDR486C, cultured two hours with substance
  The level of expressed mRNA in the presence of chemical substance/The level of expressed mRNA in the absence of chemical substance: 1.4
Yeast gene YDR511W, cultured two hours with substance
  The level of expressed mRNA in the presence of chemical substance/The level of expressed mRNA in the absence of chemical substance: 1.2
Yeast gene YDR533C, cultured two hours with substance
  The level of expressed mRNA in the presence of chemical substance/The level of expressed mRNA in the absence of chemical substance: 7.7
Yeast gene YDR545W, cultured two hours with substance
  The level of expressed mRNA in the presence of chemical substance/The level of expressed mRNA in the absence of chemical substance: 0.7
Yeast gene YEL001C, cultured two hours with substance
  The level of expressed mRNA in the presence of chemical substance/The level of expressed mRNA in the absence of chemical substance: 1.2
Yeast gene YEL033W, cultured two hours with the chemical substance
  The level of expressed mRNA in the presence of chemical substance/The level of expressed mRNA in the absence of chemical substance: 1.2
Yeast gene YER004W, cultured two hours with substance
  The level of expressed mRNA in the presence of chemical substance/The level of expressed mRNA in the absence of chemical substance: 2.2
Yeast gene YER035W, cultured two hours with substance
  The level of expressed mRNA in the presence of chemical substance/The level of expressed mRNA in the absence of chemical substance: 1.4
Yeast gene YER038C, cultured two hours with substance
  The level of expressed mRNA in the presence of chemical substance/The level of expressed mRNA in the absence of chemical substance: 0.6
Yeast gene YER079W, cultured two hours with substance
  The level of expressed mRNA in the presence of chemical substance/The level of expressed mRNA in the absence of chemical substance: 2.1
Yeast gene YER106W, cultured two hours with substance
  The level of expressed mRNA in the presence of chemical substance/The level of expressed mRNA in the absence of chemical substance: 1.0
Yeast gene YER158C, cultured two hours with substance
  The level of expressed mRNA in the presence of chemical substance/The level of expressed mRNA in the absence of chemical substance: 2.3
Yeast gene YER163C, cultured two hours with substance
  The level of expressed mRNA in the presence of chemical substance/The level of expressed mRNA in the absence of chemical substance: 1.6
Yeast gene YER175C, cultured two hours with substance
  The level of expressed mRNA in the presence of chemical substance/The level of expressed mRNA in the absence of chemical substance: 1.1
Yeast gene YFL006W, cultured two hours with substance
  The level of expressed mRNA in the presence of chemical substance/The level of expressed mRNA in the absence of chemical substance: 1.2
Yeast gene YFL010C, cultured two hours with substance
  The level of expressed mRNA in the presence of chemical substance/The level of expressed mRNA in the absence of chemical substance: 1.4
Yeast gene YFL024C, cultured two hours with substance
  The level of expressed mRNA in the presence of chemical substance/The level of expressed mRNA in the absence of chemical substance: 0.6
Yeast gene YFL032W, cultured two hours with substance
  The level of expressed mRNA in the presence of chemical substance/The level of expressed mRNA in the absence of chemical substance: 1.1
Yeast gene YFR015C, cultured for two hours with substance
  The level of expressed mRNA in the presence of chemical substance/The level of expressed mRNA in the absence of chemical substance: 3.9
Yeast gene YGL037C, cultured two hours with substance
  The level of expressed mRNA in the presence of chemical substance/The level of expressed mRNA in the absence of chemical substance: 3.9
Yeast gene YGL047W, cultured two hours with substance
  The level of expressed mRNA in the presence of chemical substance/The level of expressed mRNA in the absence of chemical substance: 1.9
Yeast gene YGL053W, cultured two hours with substance
  The level of expressed mRNA in the presence of chemical substance/The level of expressed mRNA in the absence of chemical substance: 1.3
Yeast gene YGL121C, cultured two hours with substance
  The level of expressed mRNA in the presence of chemical substance/The level of expressed mRNA in the absence of chemical substance: 6.1
Yeast gene YGL136C, cultured two hours with substance
  The level of expressed mRNA in the presence of chemical substance/The level of expressed mRNA in the absence of chemical substance: 1.4
Yeast gene YGR101W, cultured two hours with substance
  The level of expressed mRNA in the presence of chemical substance/The level of expressed mRNA in the absence of chemical substance: 2.0
Yeast gene YGR110W, cultured two hours with substance
  The level of expressed mRNA in the presence of chemical substance/The level of expressed mRNA in the absence of chemical substance: 0.5
Yeast gene YGR130C, cultured two hours with substance
  The level of expressed mRNA in the presence of chemical substance/The level of expressed mRNA in the absence of chemical substance: 0.8
Yeast gene YGR146C, cultured two hours with substance
  The level of expressed mRNA in the presence of chemical substance/The level of expressed mRNA in the absence of chemical substance: 0.9
Yeast gene YGR154C, cultured two hours with substance
  The level of expressed mRNA in the presence of chemical substance/The level of expressed mRNA in the absence of chemical substance: 1.5
Yeast gene YGR221C, cultured two hours with substance
  The level of expressed mRNA in the presence of chemical substance/The level of expressed mRNA in the absence of chemical substance: 0.5
Yeast gene YHR029C, cultured two hours with substance
  The level of expressed mRNA in the presence of chemical substance/The level of expressed mRNA in the absence of chemical substance: 3.8
Yeast gene YHR138C, cultured two hours with substance
  The level of expressed mRNA in the presence of chemical substance/The level of expressed mRNA in the absence of chemical substance: 1.6
Yeast gene YHR199C, cultured two hours with substance
  The level of expressed mRNA in the presence of chemical substance/The level of expressed mRNA in the absence of chemical substance: 1.9
Yeast gene YHR209W, cultured two hours with substance
  The level of expressed mRNA in the presence of chemical substance/The level of expressed mRNA in the absence of chemical substance: 3.3
Yeast gene YIL023C, cultured two hours with substance
  The level of expressed mRNA in the presence of chemical substance/The level of expressed mRNA in the absence of chemical substance: 1.1
Yeast gene YIL024C, cultured two hours with substance
  The level of expressed mRNA in the presence of chemical substance/The level of expressed mRNA in the absence of chemical substance: 0.6
Yeast gene YIL041W, cultured two hours with substance
  The level of expressed mRNA in the presence of chemical substance/The level of expressed mRNA in the absence of chemical substance: 1.4
Yeast gene YIL087C, cultured two hours with substance
  The level of expressed mRNA in the presence of chemical substance/The level of expressed mRNA in the absence of chemical substance: 2.8
Yeast gene YIL117C, cultured two hours with substance
  The level of expressed mRNA in the presence of chemical substance/The level of expressed mRNA in the absence of chemical substance: 1.8
Yeast gene YIL136W, mitochondria-located protein gene
  The level of expressed mRNA in the presence of chemical substance/The level of expressed mRNA in the absence of chemical substance: 4.8
Yeast gene YIR024C
  The level of expressed mRNA in the presence of chemical substance/The level of expressed mRNA in the absence of chemical substance: 6.3
Yeast gene YJL020C, cultured two hours with substance
  The level of expressed mRNA in the presence of chemical substance/The level of expressed mRNA in the absence of chemical substance: 0.6
Yeast gene YJL057C, cultured two hours with substance
  The level of expressed mRNA in the presence of chemical substance/The level of expressed mRNA in the absence of chemical substance: 2.0
Yeast gene YJL066C, cultured two hours with substance
  The level of expressed mRNA in the presence of chemical substance/The level of expressed mRNA in the absence of chemical substance: 0.8
Yeast gene YJL082W, cultured two hours with substance
  The level of expressed mRNA in the presence of chemical substance/The level of expressed mRNA in the absence of chemical substance: 1.0
Yeast gene YJL108C, cultured two hours with substance
  The level of expressed mRNA in the presence of chemical substance/The level of expressed mRNA in the absence of chemical substance: 1.0
Yeast gene YJL144W, cultured two hours with substance
  The level of expressed mRNA in the presence of chemical substance/The level of expressed mRNA in the absence of chemical substance: 3.0
Yeast gene YJL149W, cultured two hours with substance
  The level of expressed mRNA in the presence of chemical substance/The level of expressed mRNA in the absence of chemical substance: 1.5
Yeast gene YJL151C, cultured two hours with substance
  The level of expressed mRNA in the presence of chemical substance/The level of expressed mRNA in the absence of chemical substance: 1.0
Yeast gene YJL152W, cultured two hours with substance
  The level of expressed mRNA in the presence of chemical substance/The level of expressed mRNA in the absence of chemical substance: 1.0
Yeast gene YJL161W, cultured two hours with substance
  The level of expressed mRNA in the presence of chemical substance/The level of expressed mRNA in the absence of chemical substance: 3.7
Yeast gene YJL171C, cultured two hours with substance
  The level of expressed mRNA in the presence of chemical substance/The level of expressed mRNA in the absence of chemical substance: 2.2
Yeast gene YJL186W, cultured two hours with substance
  The level of expressed mRNA in the presence of chemical substance/The level of expressed mRNA in the absence of chemical substance: 0.6
Yeast gene YJR008W, cultured two hours with substance
  The level of expressed mRNA in the presence of chemical substance/The level of expressed mRNA in the absence of chemical substance: 1.4
Yeast gene YJR054W, cultured two hours with substance
  The level of expressed mRNA in the presence of chemical substance/The level of expressed mRNA in the absence of chemical substance: 0.7
Yeast gene YJR085C, cultured two hours with substance
  The level of expressed mRNA in the presence of chemical substance/The level of expressed mRNA in the absence of chemical substance: 2.9
Yeast gene YKL034W, cultured two hours with substance
  The level of expressed mRNA in the presence of chemical substance/The level of expressed mRNA in the absence of chemical substance: 1.2
Yeast gene YKL070W
  The level of expressed mRNA in the presence of chemical substance/The level of expressed mRNA in the absence of chemical substance: 10.4
Yeast gene YKL071W, cultured two hours with substance
  The level of expressed mRNA in the presence of chemical substance/The level of expressed mRNA in the absence of chemical substance: 40.3
